The test system of this assay is BDF1 mice, B16 melanoma ip, median survival T/C. The assay is described as follows: NCI In Vivo Anticancer Drug Screen. Data for tumor model B16 Melanoma (intraperitoneal) in B6D2F1 (BDF1) mice. The note with it: endpoint: median survival time, higher = longer survival. In a few lines:
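Transplantable tumor model; survival or tumor size measured; reported as T/C, treated over vehicle control.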

The mark [1] stands for this setting: dose: 0.5 mg/kg/injection, schedule: Q01DX009 (ip), vehicle: saline.
Setting [2] is: dose: 12.5 mg/kg/injection, schedule: Q01DX009 (ip), vehicle: Klucel (hydroxypropylcellulose) (HPC).
Setting [3] is: dose: 25.0 mg/kg/injection, schedule: Q01DX009 (ip), vehicle: Klucel (hydroxypropylcellulose) (HPC).
The mark [4] stands for this setting: dose: 50.0 mg/kg/injection, schedule: Q01DX009 (ip), vehicle: Klucel (hydroxypropylcellulose) (HPC).
The mark [5] stands for this setting: dose: 25.0 mg/kg/injection, schedule: Q01DX009 (ip), vehicle: saline.
Where [6] appears, read: dose: 50.0 mg/kg/injection, schedule: Q01DX009 (ip), vehicle: saline.
Setting [7] is: dose: 12.5 mg/kg/injection, schedule: Q01DX009 (ip), vehicle: saline.
The mark [8] stands for this setting: dose: 100.0 mg/kg/injection, schedule: Q01DX009 (ip), vehicle: saline.
Where [9] appears, read: dose: 100.0 mg/kg/injection, schedule: Q01DX009 (ip), vehicle: Klucel (hydroxypropylcellulose) (HPC).
Where [10] appears, read: dose: 200.0 mg/kg/injection, schedule: Q01DX009 (ip), vehicle: Klucel (hydroxypropylcellulose) (HPC).
[11] abbreviates: dose: 400.0 mg/kg/injection, schedule: Q01DX009 (ip), vehicle: Klucel (hydroxypropylcellulose) (HPC).
The mark [12] stands for this setting: dose: 6.25 mg/kg/injection, schedule: Q01DX009 (ip), vehicle: Klucel (hydroxypropylcellulose) (HPC).
The mark [13] stands for this setting: dose: 100.0 mg/kg/injection, schedule: Q04DX003 (ip), vehicle: saline.

“And” between values parts separate entries of the source, which are not always exact repeats. Equal values may be shown once. Toxic doses and inconclusive results are not listed.

`COC(COC(N)=O)C1=C(N2CC2)C(=O)C(C)=C(N2CC2)C1=O` (stereo not drawn): the T/C was 93 % of control and 107 % of control and 122 % of control (dose: 0.03 mg/kg/injection, schedule: Q01DX009 (ip), vehicle: saline); 101 % of control and 114 % of control (dose: 0.06 mg/kg/injection, schedule: Q01DX009 (ip), vehicle: saline); 123 % of control (dose: 0.12 mg/kg/injection, schedule: Q01DX009 (ip), vehicle: saline); 163 % of control (dose: 0.25 mg/kg/injection, schedule: Q01DX009 (ip), vehicle: saline); 179 % of control and 196 % of control under setting [1].

Take `O=C(O)c1ccccc1C(=O)OC1CC2C=CC1C21CC1` (stereo not drawn): the T/C was 96 % of control under setting [2], 96 % of control under setting [3] and 93 % of control under setting [4].

In the case of `CC(C)NNC(=O)C(C)O` (stereo not drawn), the T/C reads like this: under setting [5], 118 % of control; under setting [6], 102 % of control; (dose: 200.0 mg/kg/injection, schedule: Q01DX009 (ip), vehicle: saline) 102 % of control.

Consider `CC(N)Cc1ccccc1` (stereo not drawn), for which the T/C reads like this: (dose: 3.12 mg/kg/injection, schedule: Q01DX009 (ip), vehicle: saline) 105 % of control; (dose: 6.25 mg/kg/injection, schedule: Q01DX009 (ip), vehicle: saline) 100 % of control; under setting [7], 105 % of control; under setting [5], 97 % of control; under setting [6], 97 % of control; under setting [8], 95 % of control.

As for `O=C(OCC(COC(=O)c1ccccc1)(COC(=O)c1ccccc1)COC(=O)c1ccccc1)c1ccccc1`, the T/C was 111 % of control under setting [9], 102 % of control under setting [10] and 92 % of control under setting [11].

Consider `CC1CC(C)OS(=O)O1` (stereo not drawn), for which the T/C was 108 % of control (dose: 12.5 mg/kg/injection, schedule: Q01DX009 (ip), vehicle: saline sonified); 100 % of control (dose: 25.0 mg/kg/injection, schedule: Q01DX009 (ip), vehicle: saline sonified); 100 % of control (dose: 50.0 mg/kg/injection, schedule: Q01DX009 (ip), vehicle: saline sonified).

`CCOC(=O)c1c[nH]c2oc(/C=N/N3CC(CN4CCOCC4)OC3=O)cc2c1=O` (stereo not drawn): the T/C was 95 % of control under setting [7], 98 % of control under setting [5], 97 % of control under setting [6] and 105 % of control under setting [8].

Consider `CC1(C)N=C(N)N=C(N)N1c1ccc(OCC(=O)N2CCOCC2)c(Cl)c1`, for which the T/C is 104 % of control under setting [5], 93 % of control under setting [6] and 98 % of control under setting [8].

In the case of `O=C(O)c1cccc2[nH]c(=O)oc(=O)c12`, the T/C (dose: 100.0 mg/kg/injection, schedule: Q01DX009 (ip), vehicle: saline with Tween-80) is 89 % of control and the T/C (dose: 200.0 mg/kg/injection, schedule: Q01DX009 (ip), vehicle: saline with Tween-80) was 91 % of control.

For the compound `Cc1ccc(C)c(NC(=O)NC(C)C)c1`, the T/C is 106 % of control under setting [9], 100 % of control under setting [10] and 103 % of control under setting [11].

As to `O=C1C(=O)c2ccccc2C(O)=C1CCCc1ccc(C2CCCCCC2)cc1`, the T/C (dose: 25.0 mg/kg/injection, schedule: Q01DX009 (ip), vehicle: saline with Tween-80) was 123 % of control and the T/C (dose: 50.0 mg/kg/injection, schedule: Q01DX009 (ip), vehicle: saline with Tween-80) is 114 % of control.

With `CC1(C)N=C(N)N=C(N)N1c1cc(Cl)ccc1Cl`, the T/C is, setting by setting: under setting [12], 94 % of control; under setting [2], 92 % of control; under setting [3], 89 % of control and 94 % of control.

Take `CC(C)C1=CC2=CCC3C(C)(CN)CCCC3(C)C2CC1CCN` (stereo not drawn): the T/C (dose: 1.25 mg/kg/injection, schedule: Q01DX009 (ip), vehicle: saline with Tween-80) was 100 % of control; the T/C (dose: 1.25 mg/kg/injection, schedule: Q04DX003 (ip), vehicle: saline with Tween-80) was 104 % of control; the T/C (dose: 2.5 mg/kg/injection, schedule: Q01DX009 (ip), vehicle: saline with Tween-80) was 99 % of control; the T/C (dose: 2.5 mg/kg/injection, schedule: Q04DX003 (ip), vehicle: saline with Tween-80) is 88 % of control; the T/C (dose: 5.0 mg/kg/injection, schedule: Q01DX009 (ip), vehicle: saline with Tween-80) was 91 % of control; the T/C (dose: 5.0 mg/kg/injection, schedule: Q04DX003 (ip), vehicle: saline with Tween-80) was 90 % of control.

Consider `CC(=O)OCC12CCC(C)=CC1OC1C(OS(C)(=O)=O)C(=O)C2(C)C12CO2` (stereo not drawn), for which the T/C runs as follows: under setting [1], 101 % of control; (dose: 1.0 mg/kg/injection, schedule: Q01DX009 (ip), vehicle: saline) 95 % of control; (dose: 2.0 mg/kg/injection, schedule: Q01DX009 (ip), vehicle: saline) 104 % of control; (dose: 4.0 mg/kg/injection, schedule: Q01DX009 (ip), vehicle: saline) 88 % of control.

As for `Cc1cc(NCCCCCCCNc2cc(C)nc3cc(N)ccc23)c2ccc(N)cc2n1`, the T/C was 99 % of control (dose: 0.78 mg/kg/injection, schedule: Q01DX009 (ip), vehicle: saline with Tween-80); 100 % of control (dose: 1.56 mg/kg/injection, schedule: Q01DX009 (ip), vehicle: saline with Tween-80); 113 % of control (dose: 3.12 mg/kg/injection, schedule: Q01DX009 (ip), vehicle: saline with Tween-80); 103 % of control (dose: 6.25 mg/kg/injection, schedule: Q01DX009 (ip), vehicle: saline with Tween-80); 100 % of control (dose: 12.5 mg/kg/injection, schedule: Q01DX009 (ip), vehicle: saline with Tween-80).

In the case of `CC(=O)Oc1cc(C)c(OC(C)=O)c2ccccc12`, the T/C is 94 % of control under setting [4] and 88 % of control under setting [9].

In the case of `C/C(=N/NC(=O)c1ccccc1)c1ccccc1O`, the T/C (dose: 100.0 mg/kg/injection, schedule: Q04DX003 (ip), vehicle: gum acacia) was 93 % of control; the T/C (dose: 200.0 mg/kg/injection, schedule: Q04DX003 (ip), vehicle: gum acacia) was 95 % of control; the T/C (dose: 400.0 mg/kg/injection, schedule: Q04DX003 (ip), vehicle: gum acacia) is 93 % of control.

For the compound `CC1=CC(=Nc2ccc(N(CCCl)CCCl)cc2)C=C(C)C1=O`, the T/C by setting is: (dose: 3.12 mg/kg/injection, schedule: Q01DX009 (ip), vehicle: Klucel (hydroxypropylcellulose) (HPC)) 102 % of control and 110 % of control; under setting [2], 160 % of control; under setting [3], 160 % of control; under setting [9], 158 % of control.

Take `COc1cc2c(cc1OC)C(C=C(c1ccccc1)c1ccccc1)N(C)CC2` (stereo not drawn): the T/C by setting is: (dose: 12.5 mg/kg/injection, schedule: Q04DX003 (ip), vehicle: Klucel (hydroxypropylcellulose) (HPC)) 97 % of control; (dose: 25.0 mg/kg/injection, schedule: Q04DX003 (ip), vehicle: Klucel (hydroxypropylcellulose) (HPC)) 97 % of control; (dose: 50.0 mg/kg/injection, schedule: Q04DX003 (ip), vehicle: Klucel (hydroxypropylcellulose) (HPC)) 100 % of control.

As for `NC(=O)CCCN1CCCC1=O`, the T/C was 106 % of control under setting [13]; 109 % of control (dose: 200.0 mg/kg/injection, schedule: Q04DX003 (ip), vehicle: saline); 106 % of control (dose: 400.0 mg/kg/injection, schedule: Q04DX003 (ip), vehicle: saline).

As for `Cc1cccnc1C`, the T/C is, setting by setting: (dose: 25.0 mg/kg/injection, schedule: Q04DX003 (ip), vehicle: saline) 103 % of control; (dose: 50.0 mg/kg/injection, schedule: Q04DX003 (ip), vehicle: saline) 104 % of control; under setting [13], 112 % of control.

As for `CCOC(=O)CCCN(c1sc(C)c(C)c1C(=O)OCC)S(=O)(=O)c1ccc(C)cc1`, the T/C (dose: 50.0 mg/kg/injection, schedule: Q04DX003 (ip), vehicle: saline with Tween-80) was 111 % of control; the T/C (dose: 100.0 mg/kg/injection, schedule: Q04DX003 (ip), vehicle: saline with Tween-80) was 105 % of control; the T/C (dose: 200.0 mg/kg/injection, schedule: Q04DX003 (ip), vehicle: saline with Tween-80) is 111 % of control; the T/C (dose: 400.0 mg/kg/injection, schedule: Q04DX003 (ip), vehicle: saline with Tween-80) is 100 % of control.

On to `CCC(CO)NC(=O)C1C=C2c3cccc4[nH]cc(c34)CC2N(C)C1` (stereo not drawn), for which the T/C was 93 % of control under setting [12]; 98 % of control under setting [2]; 91 % of control under setting [3]; 86 % of control under setting [4]; 86 % of control under setting [9]; 111 % of control under setting [10].

The values are drawn from PubChem BioAssay AID192 (DTP/NCI, 2004).
